Data published in patent publication US9809587B2, “Pesticidally active heterocyclic derivatives with sulphur containing substituents” (Syngenta Participations AG, priority 2014, dated 2017).

Experiments:
Format in all cases: in vivo
[1] = tested on: Plutella xylostella (Diamond Back Moth); test: Plutella xylostella (diamond back moth), treated artificial diet; conditions: 120 h, application rate of 200 ppm, L2 larvae on artificial diet, 5 days after infestation, read-out: effect in at least one of the two categories (mortality or growth inhibition)
Outline: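 Artificial diet treated with aqueous dilutions of DMSO stocks (10′000 ppm stock), dried, then infested with 10-15 L2 larvae per well. Mortality and growth inhibition assessed versus untreated controls 5 days after infestation.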

[2] = tested on: Euschistus heros (Neotropical Brown Stink Bug); test: Euschistus heros (neotropical brown stink bug), sprayed soybean leaf; conditions: 120 h, application rate of 200 ppm, N-2 nymphs on soybean leaf, 5 days after infestation
Description: Example B3: Euschistus heros (Neotropical Brown Stink Bug)
Soybean leaf on agar in 24-well microtiter plates were sprayed with aqueous test solutions prepared from 10′000 ppm DMSO stock solutions. After drying the leaf were infested with N-2 nymphs. The samples were assessed for mortality in comparison to untreated samples 5 days after infestation.

[3] = tested on: Frankliniella occidentalis (Western Flower Thrips); test: Frankliniella occidentalis (western flower thrips), sprayed sunflower leaf discs; conditions: foliar, 168 h, application rate of 200 ppm, mixed ages on sunflower leaf discs, 7 days after infestation
Description: Example B11: Frankliniella occidentalis (Western Flower Thrips)
Sunflower leaf discs were placed on agar in 24-well microtiter plates and sprayed with aqueous test solutions prepared from […] stock solutions. After drying the leaf discs were infested with a Frankliniella population of mixed ages. The samples were assessed for mortality 7 days after infestation.

[4] = tested on: Spodoptera littoralis (Egyqptian Cotton Leaf Worm); test: Spodoptera littoralis (Egyptian cotton leaf worm), sprayed cotton leaf discs; conditions: foliar, 72 h, application rate of 200 ppm, L1 larvae on cotton leaf discs, 3 days after infestation
Outline: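 Cotton leaf discs on agar were sprayed with aqueous dilutions made from 10′000 ppm DMSO stocks, then infested after drying with five L1 larvae. Mortality, anti-feedant effect and growth inhibition were scored against untreated discs 3 days after infestation. Control means at least one of these exceeds the untreated sample.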

[5] = tested on: Spodoptera littoralis (Egyqptian Cotton Leaf Worm); test: Spodoptera littoralis (Egyptian cotton leaf worm), compound in agar taken up by lettuce roots; conditions: 144 h, test rate of 12.5 ppm, uptake by lettuce roots from agar, 6 days after infestation, read-out: effect in at least one of the three categories (mortality, anti-feedancy, or growth inhibition)
Outline: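 Compound mixed into agar from a 10′000 ppm DMSO stock and taken up over 7 days by lettuce roots; cut leaves then infested with Spodoptera eggs. Mortality, anti-feedant effect and growth inhibition scored against untreated samples 6 days after infestation.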

[6] = tested on: Thrips tabaci (Onion Thrips); test: Thrips tabaci (onion thrips), sprayed sunflower leaf discs; conditions: foliar, 144 h, application rate of 200 ppm, mixed ages on sunflower leaf discs, 6 days after infestation
Description: Example B10: Thrips tabaci (Onion Thrips)
Sunflower leaf discs were placed on agar in 24-well microtiter plates and sprayed with aqueous test solutions prepared from 10′000 ppm DMSO stock solutions. After drying the leaf discs were infested with a thrips population of mixed ages. The samples were assessed for mortality 6 days after infestation.

[7] = tested on: Tetranychus urticae (Two-Spotted Spider Mite); test: Tetranychus urticae (two-spotted spider mite), sprayed bean leaf discs; conditions: foliar, 192 h, application rate of 200 ppm, mixed population (mobile stages) on bean leaf discs, 8 days after infestation
Description: Example B9: Tetranychus urticae (Two-Spotted Spider Mite)
Bean leaf discs on agar in 24-well microtiter plates were sprayed with aqueous test solutions prepared from 10′000 ppm DMSO stock solutions. After drying the leaf discs were infested with a mite population of mixed ages. The samples were assessed for mortality on mixed population (mobile stages) 8 days after infestation.

[8] = tested on: Myzus persicae (Green Peach Aphid); test: Myzus persicae (green peach aphid), sprayed sunflower leaf discs; conditions: foliar, 144 h, application rate of 200 ppm, mixed ages on sunflower leaf discs, 6 days after infestation
Description: Example B4: Myzus persicae (Green Peach Aphid)
Sunflower leaf discs were placed on agar in a 24-well microtiter plate and sprayed with aqueous test solutions prepared from 10′000 ppm DMSO stock solutions. After drying, the leaf discs were infested with an aphid population of mixed ages. The samples were assessed for mortality 6 days after infestation.

[9] = tested on: Bemisia tabaci (Cotton White Fly); test: Bemisia tabaci (cotton white fly), sprayed cotton leaf discs; conditions: foliar, 144 h, application rate of 200 ppm, adult white flies on cotton leaf discs, 6 days after incubation
Description: Example B1: Bemisia tabaci (Cotton White Fly)
Cotton leaf discs were placed on agar in 24-well microtiter plates and sprayed with aqueous test solutions prepared from 10′000 ppm DMSO stock solutions. After drying the leaf discs were infested with adult white flies. The samples were checked for mortality 6 days after incubation.

[10] = tested on: Aedes aegypti (Yellow Fever Mosquito); test: Activity against Aedes aegypti (yellow fever mosquito), dried deposits in tissue culture plates; conditions: application rate of 200 ppm in ethanol, adult females, after 48 h
Description: Example B12: Activity Against Aedes aegypti (Yellow Fever Mosquito)
Test solutions, at an application rate of 200 ppm in ethanol, were applied to 12-well tissue culture plates. Once the deposits were dry, five, two to five days old adult female Aedes aegypti were added to each well, and sustained with a 10% sucrose solution in a cotton wool plug. Assessment of knockdown was made one hour after introduction, and mortality was assessed at 24 and 48 hours after introduction.
The following compounds gave at least 80% control of Aedes aegypti after 48 h: […]

[11] = tested on: Diabrotica balteata (Corn Root Worm); test: Diabrotica balteata (corn root worm), sprayed maize sprouts; conditions: 96 h, application rate of 200 ppm, L2 larvae on maize sprouts, 4 days after infestation
Description: Example B2: Diabrotica balteata (Corn Root Worm)
Maize sprouts, placed on an agar layer in 24-well microtiter plates were treated with aqueous test solutions prepared from 10′000 ppm DMSO stock solutions by spraying. After drying, the plates were infested with L2 larvae (6 to 10 per well). The samples were assessed for mortality and growth inhibition in comparison to untreated samples 4 days after infestation.

[12] = tested on: Myzus persicae (Green Peach Aphid); test: Myzus persicae (green peach aphid), roots of pea seedlings in test solution; conditions: 144 h, test rate of 24 ppm, roots of infested pea seedlings in test solution, 6 days
Description: Example B5: Myzus persicae (Green Peach Aphid)
Roots of pea seedlings infested with an aphid population of mixed ages were placed directly in the aqueous test solutions prepared from 10′000 DMSO stock solutions. The samples were assessed for mortality 6 days after placing seedlings in test solutions.

CCS(=O)(=O)c1cc(-c2cc(C(F)(F)F)ccn2)cnc1-c1nc2cc(C(F)(F)F)ncc2n1C [Compound P21]
≥ 80%: percent effect (mortality or growth inhibition) at 200 ppm [1] | mortality at 200 ppm [2] | mortality at 200 ppm [3] | percent control (mortality, anti-feedant effect or growth inhibition) at 200 ppm [4] | percent control (mortality, anti-feedancy or growth inhibition) at 12.5 ppm [5] | mortality at 200 ppm [6] | mortality at 200 ppm [7] | mortality at 200 ppm [8] | mortality at 200 ppm [9] | pest or weed control at 200 ppm [10] | mortality at 200 ppm [11]

CCS(=O)(=O)c1cc(-c2ncc(C(F)(F)F)cn2)cnc1-c1nc2cc(C(F)(F)F)ncc2n1C [Compound P25]
≥ 80%: percent effect (mortality or growth inhibition) at 200 ppm [1] | mortality at 200 ppm [2] | mortality at 200 ppm [3] | percent control (mortality, anti-feedant effect or growth inhibition) at 200 ppm [4] | percent control (mortality, anti-feedancy or growth inhibition) at 12.5 ppm [5] | mortality at 200 ppm [6] | mortality at 200 ppm [7] | mortality at 200 ppm [8] | mortality at 200 ppm [9] | pest or weed control at 200 ppm [10] | mortality at 200 ppm [11]

CCS(=O)(=O)c1cc(-c2ncccn2)cnc1-c1nc2cc(C(F)(F)F)ncc2n1C [Compound P27]
≥ 80%: percent effect (mortality or growth inhibition) at 200 ppm [1] | mortality at 200 ppm [2] | mortality at 200 ppm [3] | percent control (mortality, anti-feedant effect or growth inhibition) at 200 ppm [4] | percent control (mortality, anti-feedancy or growth inhibition) at 12.5 ppm [5] | mortality at 24 ppm [12] | mortality at 200 ppm [7] | mortality at 200 ppm [8] | mortality at 200 ppm [9] | mortality at 200 ppm [11]

CCS(=O)(=O)c1cc(-c2ncc(F)cc2F)cnc1-c1nc2cc(C(F)(F)F)ncc2n1C [Compound P35]
≥ 80%: percent effect (mortality or growth inhibition) at 200 ppm [1] | mortality at 200 ppm [3] | percent control (mortality, anti-feedant effect or growth inhibition) at 200 ppm [4] | percent control (mortality, anti-feedancy or growth inhibition) at 12.5 ppm [5] | mortality at 24 ppm [12] | mortality at 200 ppm [7] | mortality at 200 ppm [8] | mortality at 200 ppm [9] | mortality at 200 ppm [11]

CCS(=O)(=O)c1cc(-c2cccc(C#N)n2)cnc1-c1nc2cc(C(F)(F)F)ncc2n1C [Compound P64]
≥ 80%: percent effect (mortality or growth inhibition) at 200 ppm [1] | mortality at 200 ppm [2] | percent control (mortality, anti-feedant effect or growth inhibition) at 200 ppm [4] | percent control (mortality, anti-feedancy or growth inhibition) at 12.5 ppm [5] | mortality at 200 ppm [7] | mortality at 200 ppm [8] | mortality at 200 ppm [9] | mortality at 200 ppm [11]

CCS(=O)(=O)c1cc(-c2ccoc2)cnc1-c1nc2cc(C(F)(F)F)ncc2n1C [Compound P71]
≥ 80%: percent effect (mortality or growth inhibition) at 200 ppm [1] | mortality at 200 ppm [2] | percent control (mortality, anti-feedancy or growth inhibition) at 12.5 ppm [5] | mortality at 200 ppm [7] | mortality at 200 ppm [8] | mortality at 200 ppm [11]

CCS(=O)(=O)c1cc(-n2cc(C#N)cn2)cnc1-c1nc2cc(C(F)(F)F)ncc2n1C [Compound P94]
≥ 80%: percent effect (mortality or growth inhibition) at 200 ppm [1] | mortality at 200 ppm [2] | mortality at 200 ppm [3] | percent control (mortality, anti-feedant effect or growth inhibition) at 200 ppm [4] | mortality at 24 ppm [12] | mortality at 200 ppm [6] | mortality at 200 ppm [8] | mortality at 200 ppm [9] | pest or weed control at 200 ppm [10] | mortality at 200 ppm [11]

CCS(=O)(=O)c1cc(-n2cnc(C(F)(F)F)n2)cnc1-c1nc2cc(C(F)(F)F)ncc2n1C [Compound P110]
≥ 80%: percent effect (mortality or growth inhibition) at 200 ppm [1] | mortality at 200 ppm [2] | mortality at 200 ppm [3] | percent control (mortality, anti-feedant effect or growth inhibition) at 200 ppm [4] | mortality at 24 ppm [12] | mortality at 200 ppm [6] | mortality at 200 ppm [7] | mortality at 200 ppm [8] | pest or weed control at 200 ppm [10] | mortality at 200 ppm [11]

CCS(=O)(=O)c1cc(-c2ncc(C#N)cn2)cnc1-c1nc2cc(C(F)(F)F)ncc2n1C [Compound P111]
≥ 80%: percent effect (mortality or growth inhibition) at 200 ppm [1] | mortality at 200 ppm [2] | mortality at 200 ppm [3] | percent control (mortality, anti-feedant effect or growth inhibition) at 200 ppm [4] | mortality at 24 ppm [12] | mortality at 200 ppm [6] | mortality at 200 ppm [8] | mortality at 200 ppm [9] | pest or weed control at 200 ppm [10] | mortality at 200 ppm [11]
